# Source: patent publication EP3225257A1, “AMPHIPHILIC MONOMERS BASED NANOVECTORS AND THEIR USE FOR SIRNA DELIVERY” (Université de Strasbourg, priority 2016, dated 2017)
# Tested on: A549-luc cells
# Experiment: siRNA delivery, luciferase gene silencing
# Format: cell-based, human
# Conditions: 10 nM siRNA, 48 h
# Procedure: The A549-luc cells that stably express the reporter gene luciferase GL3 (1-2 x 10^10 RLU/mg protein) were established by transfecting human lung carcinoma A549 cells (CCL-185; ATCC) with pGL3-Luc plasmid (Clontech, Mountain View, CA, USA) using jetPEI™ as delivery system (Polyplus-Transfection, Illkirch, France). Cells were grown in RPMI 1640 medium (Eurobio, Les Ulis, France) supplemented with 10% Fetal Bovine Serum (Eurobio, Les Ulis, France), 1% antibiotic solution (pencillin-streptomycin, Gibco-invitrogen) and maintained under 0.8 µg/mL G418 selection (Promega, Madison, WI, USA) at 37 °C in a 5% CO2 humidified atmosphere. […]
# Luciferase gene expression was determined 48 h after delivery with a Luciferase Assay System (Promega, Charbonnières, France) according to manufacturer's instructions. The luminescence was quantified using 2 µL of cell lysate with a Centro LB luminometer (Berthold, Thoiry, France). Protein concentration in cell lysate was measured by using a BCA assay kit (Interchim, Montluçon, France), according to manufacturer's instructions. After expressing the luciferase activity as relative light units integrated over 10 s per mg of cell protein (RLU/mg), the luciferase gene silencing was calculated relative to the luciferase activity of non-transfected A549-luc cells.
Substance,"specific inhibition (40 µg/ml, polymerized micelles of the surfactant)",maximum inhibition (polymerized micelles of the surfactant at increasing concentrations)
C25diynetrioxa-L-Histidine [compound 1],80%,
C25diynetrioxaamine [compound 2],,25%
